Measurements: US20240092758A1, “IMIDAZOLO INDAZOLE COMPOUNDS AS JAK INHIBITORS” (Theravance Biopharma R&D IP, LLC, priority 2021, published 2024)

Experiments:
JAK1 = JAK1 (Homo sapiens (Human), UniProt P23458); assay: Biochemical JAK kinase assay (LanthaScreen), JAK1; conditions: for Ki: read-out: JAK1 pKi (converted)
Method: (§1) A panel of four LanthaScreen JAK biochemical assays (JAK1, 2, 3 and Tyk2) were carried in a common kinase reaction buffer (50 mM HEPES, pH 7.5, 0.01% Brij-35, 10 mM MgCl2, and 1 mM EGTA). Recombinant GST-tagged JAK enzymes and a GFP-tagged STAT1 peptide substrate were obtained from Life Technologies.
(§2) Serially diluted compounds were pre-incubated with each of the four JAK enzymes and the substrate in white 384-well microplates (Corning) at ambient temperature for 1 h. ATP was subsequently added to initiate the kinase reactions in 10 μL total volume, with 1% DMSO. The final enzyme concentrations for JAK1, 2, 3 and Tyk2 are 4.2 nM, 0.1 nM, 1 nM, and 0.25 nM respectively; the corresponding Km ATP concentrations used are 25 μM, 3 μM, 1.6 μM, and 10 μM; while the substrate concentration is 200 nM for all four assays. Kinase reactions were allowed to proceed for 1 hour at ambient temperature before a 10 μL preparation of EDTA (10 mM final concentration) and Tb-anti-pSTAT1 (pTyr701) antibody (Life Technologies, 2 nM final concentration) in TR-FRET dilution buffer (Life Technologies) was added. The plates were allowed to incubate at ambient temperature for 1 h before being read on the EnVision reader (Perkin Elmer). Emission ratio signals (520 nm/495 nm) were recorded and utilized to calculate the percent inhibition values based on DMSO and background controls.
(§3) For dose-response analysis, percent inhibition data were plotted vs. compound concentrations, and IC50 values were determined from a 4-parameter robust fit model with the Prism software (GraphPad Software). Results were expressed as pIC50 (negative logarithm of IC50) and subsequently converted to pKi (negative logarithm of dissociation constant, Ki) using the Cheng-Prusoff equation.
(§4) Test compounds having a lower Ki value or higher pKi value in the four JAK assays show greater inhibition of JAK activity.

JAK2 = JAK2 (Homo sapiens (Human), UniProt O60674); assay: Biochemical JAK kinase assay (LanthaScreen), JAK2; conditions: for Ki: read-out: JAK2 pKi (converted)
Chain of JAK2 (O60674 whole entry): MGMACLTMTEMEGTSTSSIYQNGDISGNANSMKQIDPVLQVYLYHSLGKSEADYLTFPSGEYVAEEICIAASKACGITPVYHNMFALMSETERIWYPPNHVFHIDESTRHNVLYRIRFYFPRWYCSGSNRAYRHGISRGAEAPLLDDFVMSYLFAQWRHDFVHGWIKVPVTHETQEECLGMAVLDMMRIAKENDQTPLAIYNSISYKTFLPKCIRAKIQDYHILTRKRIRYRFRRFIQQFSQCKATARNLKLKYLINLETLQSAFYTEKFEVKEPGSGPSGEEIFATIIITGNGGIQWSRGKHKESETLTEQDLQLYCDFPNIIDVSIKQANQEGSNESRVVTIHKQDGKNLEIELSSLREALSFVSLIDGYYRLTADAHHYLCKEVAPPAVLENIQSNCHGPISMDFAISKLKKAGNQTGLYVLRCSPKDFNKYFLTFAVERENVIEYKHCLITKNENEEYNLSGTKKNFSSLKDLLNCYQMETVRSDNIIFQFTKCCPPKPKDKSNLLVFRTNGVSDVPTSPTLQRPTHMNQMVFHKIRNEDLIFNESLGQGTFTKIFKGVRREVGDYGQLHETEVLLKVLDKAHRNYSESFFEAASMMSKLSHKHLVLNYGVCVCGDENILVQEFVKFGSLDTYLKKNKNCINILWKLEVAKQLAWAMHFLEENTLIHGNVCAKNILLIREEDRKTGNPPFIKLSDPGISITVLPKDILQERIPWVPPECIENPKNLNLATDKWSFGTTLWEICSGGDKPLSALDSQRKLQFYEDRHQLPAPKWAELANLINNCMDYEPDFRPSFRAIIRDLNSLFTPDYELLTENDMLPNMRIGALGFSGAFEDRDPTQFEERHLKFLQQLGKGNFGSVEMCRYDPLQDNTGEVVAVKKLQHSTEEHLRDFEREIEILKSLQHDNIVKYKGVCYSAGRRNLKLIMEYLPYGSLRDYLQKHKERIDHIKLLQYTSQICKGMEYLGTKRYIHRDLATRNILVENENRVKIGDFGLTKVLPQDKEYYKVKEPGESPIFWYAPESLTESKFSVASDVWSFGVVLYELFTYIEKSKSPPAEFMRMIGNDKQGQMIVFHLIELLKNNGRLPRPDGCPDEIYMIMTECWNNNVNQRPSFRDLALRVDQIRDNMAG
Method: as §1, §2, §3, §4

[1] = system: IL-13 induced STAT6 phosphorylation in BEAS-2B human lung epithelial cells; assay: Cellular JAKI potency assay (BEAS-2B); format: cell-based; conditions: BEAS-2B cells; for IC50: Homo sapiens, BEAS-2B, read-out: BEAS2B pIC50 (converted)
Method: The JAKI cellular potency assay was carried out by measuring inhibition of interleukin-13 (IL-13, R&D Systems) induced STAT6 phosphorylation in BEAS-2B human lung epithelial cells (ATCC). BEAS-2B cells were grown at 37° C. in a 5% CO2 humidified incubator in 50% DMEM/50% F-12 medium (Life Technologies) supplemented with 10% FBS (Hyclone), 100 U/mL penicillin, 100 μg/mL streptomycin (Life Technologies), and 2 mM GlutaMAX (Life Technologies). On day 1 of the assay, cells were seeded at a 7,500 cells/well density in white poly-D-lysine-coated 384-well plates (Corning) with 25 μL medium and were allowed to adhere overnight in the incubator. On day 2 of the assay, the medium was removed and replaced with 12 μL of assay buffer (Hank's Balanced Salt Solution/HBSS, 25 mM HEPES, and 1 mg/ml bovine serum albumin/BSA) containing dose-responses of test compounds. Compounds were serially diluted in DMSO and then diluted another 1000-fold in media to bring the final DMSO concentration to 0.1%. Cells were incubated with test compounds at 37° C. for 1 h and followed by the addition of 12 μl of pre-warmed IL-13 (80 ng/mL in assay buffer) for stimulation. After incubating at 37° C. for 30 min, the assay buffer (containing compound and IL-13) was removed, and 10 μL of cell lysis buffer (25 mM HEPES, 0.1% SDS, 1% NP-40, 5 mM MgCl2, 1.3 mM EDTA, 1 mM EGTA, supplemented with Complete Ultra mini protease inhibitors and PhosSTOP from Roche Diagnostics). The plates were shaken at ambient temperature for 30 min before the addition of detection reagents. Levels of pSTAT6 were measured using the AlphaLISA SureFire Ultra pSTAT6 (Tyr641) assay kit from PerkinElmer. For dose-response analysis, percent inhibition data were plotted vs. compound concentrations, and IC50 values were determined from a 4-parameter robust fit model with the Graphpad Prism software. Results are expressed as the negative logarithm of the IC50 value, pIC50.
Test compounds having a lower IC50 value or higher pIC50 value in this assay show greater inhibition of IL-13 induced STAT6 phosphorylation.

Chain of JAK1 (P23458 whole entry): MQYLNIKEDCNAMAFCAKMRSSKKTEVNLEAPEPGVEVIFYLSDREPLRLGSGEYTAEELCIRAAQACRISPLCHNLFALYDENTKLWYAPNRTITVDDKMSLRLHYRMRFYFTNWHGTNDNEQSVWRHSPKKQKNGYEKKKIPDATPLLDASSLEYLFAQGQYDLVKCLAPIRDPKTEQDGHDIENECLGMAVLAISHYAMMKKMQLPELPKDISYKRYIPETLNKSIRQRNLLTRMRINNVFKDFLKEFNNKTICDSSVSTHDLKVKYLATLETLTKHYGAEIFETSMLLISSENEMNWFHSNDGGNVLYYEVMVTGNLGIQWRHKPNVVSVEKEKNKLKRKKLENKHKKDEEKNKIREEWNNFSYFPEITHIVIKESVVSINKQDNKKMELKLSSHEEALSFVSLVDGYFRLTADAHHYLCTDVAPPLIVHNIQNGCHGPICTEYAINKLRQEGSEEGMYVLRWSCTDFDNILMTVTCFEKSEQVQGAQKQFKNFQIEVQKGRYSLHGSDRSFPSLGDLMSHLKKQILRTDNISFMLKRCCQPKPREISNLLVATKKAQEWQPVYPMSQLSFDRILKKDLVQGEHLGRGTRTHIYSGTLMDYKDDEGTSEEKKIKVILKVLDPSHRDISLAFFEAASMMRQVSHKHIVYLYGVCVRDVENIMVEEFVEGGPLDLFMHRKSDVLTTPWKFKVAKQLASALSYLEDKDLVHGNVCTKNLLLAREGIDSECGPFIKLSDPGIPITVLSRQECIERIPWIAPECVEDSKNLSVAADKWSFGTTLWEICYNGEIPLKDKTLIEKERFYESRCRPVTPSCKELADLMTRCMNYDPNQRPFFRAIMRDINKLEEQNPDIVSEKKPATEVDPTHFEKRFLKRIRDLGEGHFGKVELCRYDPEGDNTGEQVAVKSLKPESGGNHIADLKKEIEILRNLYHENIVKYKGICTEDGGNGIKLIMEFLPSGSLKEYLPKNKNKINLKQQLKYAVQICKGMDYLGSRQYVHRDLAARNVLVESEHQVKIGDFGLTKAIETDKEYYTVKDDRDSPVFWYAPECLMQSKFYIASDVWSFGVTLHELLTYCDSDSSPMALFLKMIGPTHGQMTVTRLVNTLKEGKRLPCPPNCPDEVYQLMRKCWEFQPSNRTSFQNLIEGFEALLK

Row | Structure (SMILES) | JAK1 pKi (JAK1) | JAK2 pKi (JAK2) | IC50 [1] | Ki (JAK1) | Ki (JAK2) | BEAS2B pIC50 [1]
1 | CCc1cc(O)ccc1-c1ccc2c(-c3nc(C4=CCN(CCNC(C)=O)CC4)c[nH]3)n[nH]c2c1F [Example 107] | A (A represents a pKi value ≥10 (Ki≤0.1 nM)) | A (A represents a pKi value ≥10 (Ki≤0.1 nM)) | 10 to 31.6 nM |  |  | 
2 | CCc1cc(O)ccc1-c1ccc2c(-c3nc(C4=CCCN(CCNS(C)(=O)=O)C4)c[nH]3)n[nH]c2c1 [Example 108] |  | A (A represents a pKi value ≥10 (Ki≤0.1 nM)) | 10 to 31.6 nM | 0.1 to 1 nM |  | 
3 | CCc1cc(O)ccc1-c1ccc2c(-c3nc(C4=CCCN(CCNC(C)=O)C4)c[nH]3)n[nH]c2c1 [Example 109] |  |  | 10 to 31.6 nM | 0.1 to 1 nM | 0.1 to 1 nM | 
4 | CCc1cc(O)ccc1-c1ccc2c(-c3nc(C4=CCCN(CCNC(=O)C(C)C)C4)c[nH]3)n[nH]c2c1 [Example 110] |  |  | 10 to 31.6 nM | 0.1 to 1 nM | 0.1 to 1 nM | 
5 | CCc1cc(O)ccc1-c1ccc2c(-c3nc(C4=CCCN(CCNS(C)(=O)=O)C4)c[nH]3)n[nH]c2c1F [Example 111] |  |  | 10 to 31.6 nM | 0.1 to 1 nM | 0.1 to 1 nM | 
6 | CCc1cc(O)ccc1-c1ccc2c(-c3nc(C4=CCCN(CCNC(C)=O)C4)c[nH]3)n[nH]c2c1F [Example 112] |  |  | 10 to 31.6 nM | 0.1 to 1 nM | 0.1 to 1 nM | 
7 | CCc1cc(O)ccc1-c1ccc2c(-c3nc(C4=CCN(CCNS(C)(=O)=O)C4)c[nH]3)n[nH]c2c1 [Example 113] |  | A (A represents a pKi value ≥10 (Ki≤0.1 nM)) | 10 to 31.6 nM | 0.1 to 1 nM |  | 
8 | CCc1cc(O)ccc1-c1ccc2c(-c3nc(C4=CCN(CCNC(C)=O)C4)c[nH]3)n[nH]c2c1 [Example 114] | A (A represents a pKi value ≥10 (Ki≤0.1 nM)) | A (A represents a pKi value ≥10 (Ki≤0.1 nM)) | 3.16 to 10 nM |  |  | 
9 | CCc1cc(O)ccc1-c1ccc2c(-c3nc(C4=CCN(CCNS(C)(=O)=O)C4)c[nH]3)n[nH]c2c1F [Example 115] |  | A (A represents a pKi value ≥10 (Ki≤0.1 nM)) | 10 to 31.6 nM | 0.1 to 1 nM |  | 
10 | CCc1cc(O)ccc1-c1ccc2c(-c3nc(C4=CCN(CCNC(C)=O)C4)c[nH]3)n[nH]c2c1F [Example 116] |  | A (A represents a pKi value ≥10 (Ki≤0.1 nM)) | 10 to 31.6 nM | 0.1 to 1 nM |  | 
11 | CCc1cc(O)ccc1-c1ccc2c(-c3nc(C4=CCN(CCCNC(=O)C(C)C)CC4)c[nH]3)n[nH]c2c1 [Example 117] | A (A represents a pKi value ≥10 (Ki≤0.1 nM)) | A (A represents a pKi value ≥10 (Ki≤0.1 nM)) | 3.16 to 10 nM |  |  | 
12 | CCc1cc(O)ccc1-c1ccc2c(-c3nc(C4=CCN(CCN5CCNC5=O)CC4)c[nH]3)n[nH]c2c1 [Example 118] | A (A represents a pKi value ≥10 (Ki≤0.1 nM)) | A (A represents a pKi value ≥10 (Ki≤0.1 nM)) | 31.6 to 100 nM |  |  | 
13 | CCc1cc(O)ccc1-c1ccc2c(-c3nc(C4=CCN(CCN5CCCC5=O)CC4)c[nH]3)n[nH]c2c1F [Example 119] |  |  | 10 to 31.6 nM | 0.1 to 1 nM | 0.1 to 1 nM | 
14 | CCc1cc(O)ccc1-c1ccc2c(-c3nc(C4=CCN(CCN5CCNC5=O)CC4)c[nH]3)n[nH]c2c1F [Example 120] |  |  | 10 to 31.6 nM | 0.1 to 1 nM | 0.1 to 1 nM | 
15 | CCc1cc(O)ccc1-c1ccc2c(-c3nc(C4=CCN(C5CCC(O)CC5)CC4)c[nH]3)n[nH]c2c1F (stereo not drawn) [Example 121] |  | A (A represents a pKi value ≥10 (Ki≤0.1 nM)) | 10 to 31.6 nM | 0.1 to 1 nM |  | 
16 | CCc1cc(O)ccc1-c1ccc2c(-c3nc(C4=CCN(CC5CNC(=O)O5)CC4)c[nH]3)n[nH]c2c1F (stereo not drawn) [Example 123] |  |  | 31.6 to 100 nM | 0.1 to 1 nM | 0.1 to 1 nM | 

Row | Structure (SMILES) | JAK1 pKi (JAK1) | JAK2 pKi (JAK2) | IC50 [1] | Ki (JAK1) | Ki (JAK2) | BEAS2B pIC50 [1]
17 | CCc1cc(O)ccc1-c1ccc2c(-c3nc(C4=CCCN(CCN5CCNC5=O)C4)c[nH]3)n[nH]c2c1 [Example 124] | A (A represents a pKi value ≥10 (Ki≤0.1 nM)) | A (A represents a pKi value ≥10 (Ki≤0.1 nM)) | 3.16 to 10 nM |  |  | 
18 | CCc1cc(O)ccc1-c1ccc2c(-c3nc(C4=CCCN(CCN5CCNC5=O)C4)c[nH]3)n[nH]c2c1F [Example 125] |  |  | 31.6 to 100 nM | 0.1 to 1 nM | 0.1 to 1 nM | 
19 | CCc1cc(O)ccc1-c1ccc2c(-c3nc(C4=CCN(CCN5CCNC5=O)C4)c[nH]3)n[nH]c2c1 [Example 127] |  |  | 10 to 31.6 nM | 0.1 to 1 nM | 0.1 to 1 nM | 
20 | CCc1cc(O)ccc1-c1ccc2c(-c3nc(C4=CCN([C@H]5CC[C@H](O)CC5)C4)c[nH]3)n[nH]c2c1 [Example 128] | A (A represents a pKi value ≥10 (Ki≤0.1 nM)) | A (A represents a pKi value ≥10 (Ki≤0.1 nM)) | 3.16 to 10 nM |  |  | 
21 | CCc1cc(O)ccc1-c1ccc2c(-c3nc(C4=CCN([C@H]5CC[C@@H](O)CC5)C4)c[nH]3)n[nH]c2c1F [Example 129] | A (A represents a pKi value ≥10 (Ki≤0.1 nM)) | A (A represents a pKi value ≥10 (Ki≤0.1 nM)) |  |  |  | A (A represents a pIC50 value between 8 (included) and 8.5)
22 | CCc1cc(O)ccc1-c1ccc2c(-c3nc(C4=CCN(Cc5ccccc5)CC4)c[nH]3)n[nH]c2c1 [Example 130] |  |  | 31.6 to 100 nM | 0.1 to 1 nM | 1 to 10 nM | 
23 | CCc1cc(O)ccc1-c1ccc2c(-c3nc(C4=CCN(Cc5cnc[nH]5)CC4)c[nH]3)n[nH]c2c1 [Example 131] | A (A represents a pKi value ≥10 (Ki≤0.1 nM)) | A (A represents a pKi value ≥10 (Ki≤0.1 nM)) | 10 to 31.6 nM |  |  | 
24 | CCc1cc(O)ccc1-c1ccc2c(-c3nc(C4=CCN(Cc5cn[nH]c5)CC4)c[nH]3)n[nH]c2c1 [Example 132] | A (A represents a pKi value ≥10 (Ki≤0.1 nM)) | A (A represents a pKi value ≥10 (Ki≤0.1 nM)) | 3.16 to 10 nM |  |  | 
25 | CCc1cc(O)ccc1-c1ccc2c(-c3nc(C4=CCN(Cc5cnn[nH]5)CC4)c[nH]3)n[nH]c2c1 [Example 133] |  | A (A represents a pKi value ≥10 (Ki≤0.1 nM)) | 10 to 31.6 nM | 0.1 to 1 nM |  | 
26 | CCc1cc(O)ccc1-c1ccc2c(-c3nc(C4=CCN(Cc5ccccc5)CC4)c[nH]3)n[nH]c2c1F [Example 134] |  |  | 100 to 316 nM | 1 to 10 nM | 1 to 10 nM | 
27 | CCc1cc(O)ccc1-c1ccc2c(-c3nc(C4=CCN(CCc5ccccc5)CC4)c[nH]3)n[nH]c2c1F [Example 135] |  |  | 100 to 316 nM | 1 to 10 nM | 1 to 10 nM | 
28 | CCc1cc(O)ccc1-c1ccc2c(-c3nc(C4=CCN(Cc5cnc[nH]5)CC4)c[nH]3)n[nH]c2c1F [Example 136] |  |  | 31.6 to 100 nM | 0.1 to 1 nM | 0.1 to 1 nM | 
29 | CCc1cc(O)ccc1-c1ccc2c(-c3nc(C4=CCN(Cc5ccn[nH]5)CC4)c[nH]3)n[nH]c2c1F [Example 137] |  |  | 10 to 31.6 nM | 0.1 to 1 nM | 0.1 to 1 nM | 
30 | CCc1cc(O)ccc1-c1ccc2c(-c3nc(C4=CCCN(Cc5ccccc5)C4)c[nH]3)n[nH]c2c1 [Example 138] |  |  | 100 to 316 nM | 0.1 to 1 nM | 0.1 to 1 nM | 
31 | CCc1cc(O)ccc1-c1ccc2c(-c3nc(C4=CCCN(CCc5ccccc5)C4)c[nH]3)n[nH]c2c1 [Example 139] |  |  | 100 to 316 nM | 1 to 10 nM | 0.1 to 1 nM | 
32 | CCc1cc(O)ccc1-c1ccc2c(-c3nc(C4=CCN(Cc5ccccc5)C4)c[nH]3)n[nH]c2c1 [Example 140] |  |  | 31.6 to 100 nM | 0.1 to 1 nM | 0.1 to 1 nM | 
